Experiments:
[1] = humans; cited from earlier work
[2] = tested on: patient with chronic obstructive pulmonary disease (COPD); assay: Administration of iodine on activated charcoal to a COPD patient, spirometric evaluation and observed bronchorelaxation; assay type: in vivo, human; details: same COPD patient; 50 mg elemental iodine in a gelatin capsule for a few days
Description: A person, had been smoking cigarettes daily for many years, but quit about 10 years ago. The decision to quit smoking was caused by increasing problems from the airways, with repeated episodes of pneumonia and airway obstruction. These symptoms were usually treated with antibiotics, steroids and bronchodilators.
After that, the airway symptoms increased considerably, with month-long episodes of cough and exercise-induced dyspnea.
In the following months the situation continued to worsen with loss of appetite, reduction of weight and severe dyspnea during rest, in spite of maximum treatment with anti-cholinergics, steroids and bronchodilators. The patient now felt desperately ill, and questioned how long they would be able to survive.
The severity of their condition prompted the patient to look for alternative treatments. […] […] […] A renewed spirometric evaluation a few months later confirmed the subjective improvements (FEV1=2.79 L, corresponding to 97.1% of their reference value and PEF=427 L/min, corresponding to 92.5% of their reference value).
The patient has continued to regularly take the combination for more than a year and still experiences the full benefit of it. A temporary discontinuation of the intake for a few days led to the reappearance of many of the symptoms. However, they quickly disappeared upon the resumption of the intake of iodinated activated charcoal. […]

[3] = may cause adverse effects in some individuals; cited from earlier work

For [Br-].[Na+] [Sodium bromide, sodium bromide], the no-effect level [1] is listed as 4 mg/kg body weight.

In the case of II [elemental iodine, iodine], the bronchorelaxing effect [2] is listed as “no distinct bronchorelaxing effect was observed” and the “iodine intake probably safe for the majority of the population” value [3] is listed as “less than or equal to 1,000 mg/day”.

— patent US20100266573A1, “METHOD AND MEANS FOR OBTAINING BRONCHORELAXATION” (Pharmalundensis AB, priority 2007, published 2010)
